From patent US20240374573A1, “IMIDAZOLE CONTAINING COMPOUNDS, DERIVATIVES THEREFORE, AND USES THEREOF” (AglaeaPharma Inc., priority 2023, published 2024)

Experiments:
α2AAR = biological target: T1, α2AAR (Homo sapiens, UniProt P08913); assay: α2AAR binding assay ([3H]-RX 821002 radioligand); settings: [3H]-RX 821002 0.5 nM, HEK293 membranes; read-out: α2A affinity (Ki)
T1 construct: host or cells: HEK293 (membranes)
T1 sequence (P08913 1-465): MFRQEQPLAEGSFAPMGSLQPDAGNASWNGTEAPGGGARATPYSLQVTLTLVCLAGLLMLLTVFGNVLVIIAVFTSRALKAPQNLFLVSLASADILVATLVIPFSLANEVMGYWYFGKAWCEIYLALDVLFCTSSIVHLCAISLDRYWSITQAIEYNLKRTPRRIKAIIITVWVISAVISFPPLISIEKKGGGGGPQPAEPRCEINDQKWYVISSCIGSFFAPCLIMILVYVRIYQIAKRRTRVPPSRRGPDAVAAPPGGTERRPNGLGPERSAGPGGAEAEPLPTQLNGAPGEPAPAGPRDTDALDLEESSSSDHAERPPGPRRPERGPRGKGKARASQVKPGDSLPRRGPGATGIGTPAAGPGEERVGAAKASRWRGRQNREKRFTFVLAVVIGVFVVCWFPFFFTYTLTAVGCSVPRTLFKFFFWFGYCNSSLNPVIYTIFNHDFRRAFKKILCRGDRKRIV

[1] = biological target: P-glycoprotein (P-gp, MDR1) (Homo sapiens, UniProt P08183); assay: in vitro; settings: dog, MDCK-MDR1, pH 7.4
Sequence of P-glycoprotein (P-gp, MDR1) (P08183 whole entry): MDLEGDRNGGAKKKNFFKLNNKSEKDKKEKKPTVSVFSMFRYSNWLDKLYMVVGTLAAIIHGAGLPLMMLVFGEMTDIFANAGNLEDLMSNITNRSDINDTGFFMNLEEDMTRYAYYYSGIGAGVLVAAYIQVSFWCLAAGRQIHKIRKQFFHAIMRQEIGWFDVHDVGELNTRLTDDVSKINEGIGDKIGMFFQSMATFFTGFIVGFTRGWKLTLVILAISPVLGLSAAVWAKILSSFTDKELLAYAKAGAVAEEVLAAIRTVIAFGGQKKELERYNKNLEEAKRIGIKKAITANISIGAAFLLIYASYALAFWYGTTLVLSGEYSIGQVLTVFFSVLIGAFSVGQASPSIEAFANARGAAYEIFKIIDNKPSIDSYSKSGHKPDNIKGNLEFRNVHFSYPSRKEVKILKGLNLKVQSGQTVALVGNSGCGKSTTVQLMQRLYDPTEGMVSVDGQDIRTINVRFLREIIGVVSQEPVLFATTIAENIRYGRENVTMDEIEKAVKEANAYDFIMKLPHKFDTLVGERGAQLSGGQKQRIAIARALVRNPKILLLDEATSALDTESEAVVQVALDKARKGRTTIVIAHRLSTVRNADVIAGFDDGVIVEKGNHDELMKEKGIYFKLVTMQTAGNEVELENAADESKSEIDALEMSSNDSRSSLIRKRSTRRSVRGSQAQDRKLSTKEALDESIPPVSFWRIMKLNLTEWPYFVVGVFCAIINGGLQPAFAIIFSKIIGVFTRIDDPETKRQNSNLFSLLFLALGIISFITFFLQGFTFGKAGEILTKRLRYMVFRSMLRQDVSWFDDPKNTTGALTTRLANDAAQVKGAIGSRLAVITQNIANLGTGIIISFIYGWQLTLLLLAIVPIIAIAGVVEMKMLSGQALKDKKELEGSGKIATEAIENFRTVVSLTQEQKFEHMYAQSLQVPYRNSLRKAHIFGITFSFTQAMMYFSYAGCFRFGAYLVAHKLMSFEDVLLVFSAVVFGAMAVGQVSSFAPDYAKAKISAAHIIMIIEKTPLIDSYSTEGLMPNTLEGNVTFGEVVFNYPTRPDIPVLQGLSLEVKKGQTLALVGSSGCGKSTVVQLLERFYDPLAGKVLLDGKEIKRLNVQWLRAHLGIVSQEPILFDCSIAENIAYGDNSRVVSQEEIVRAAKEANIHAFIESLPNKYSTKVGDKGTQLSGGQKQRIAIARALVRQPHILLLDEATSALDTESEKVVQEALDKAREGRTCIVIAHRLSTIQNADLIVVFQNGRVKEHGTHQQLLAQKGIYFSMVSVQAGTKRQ
Description: MDR1-MDCK II cells (obtained from Piet Borst at the Netherlands Cancer Institute) were seeded onto Polycarbonate membranes (PC) in 96-well insert systems at 3.33×10^5 cells/mL until to 4-7 days for confluent cell monolayer formation.
Selected α2AR agonist from table 3s were diluted with the transport buffer (HBSS with 10.0 mM Hepes, pH7.4) from DMSO stock solution to a concentration of 2 μM (DMSO<1%) and applied to the apical or basolateral side of the cell monolayer. […] Permeation of the test compounds from A to B direction and/or B to A direction was determined in duplicate. Digoxin was tested at 10.0 μM from A to B direction and B to A direction in duplicate. The plate was incubated for 2.5 hours in CO2 incubator at 37.0±1.0° C., with 5.0% CO2 at saturated humidity without shaking. In addition, the efflux ratio of each compound was also determined. Test and reference compounds were quantified by LC/MS/MS analysis based on the peak area ratio of analyte/IS.
After transport assay, lucifer yellow rejection assay was applied to determine the cell monolayer integrity. Buffers were removed from both apical and basolateral chambers, followed by the addition of 75 μL of 100 μM lucifer yellow in transport buffer and 250 μL transport buffer in apical and basolateral chambers, respectively. The plate was incubated for 30 minutes at 37.0° C. with 5.0% CO2 and 95.0% relative humidity without shaking. After 30 minutes incubation, 20 μL of lucifer yellow samples were taken from the apical sides, followed by the addition of 60 μL of transport Buffer. And then 80 μL of lucifer yellow samples were taken from the basolateral sides. The relative fluorescence unit (RFU) of lucifer yellow was measured at 425/528 nm (excitation/emission) with an Envision plate reader.
The apparent permeability coefficient Papp (cm/s) was calculated using the equation: […]
wherein dCr/dt is the cumulative concentration of compound in the receiver chamber as a function of time (μM/s); Vr is the solution volume in the receiver chamber (0.075 mL on the apical side, 0.25 mL on the basolateral side); A is the surface area for the transport, i.e. 0.143 cm2 for the area of the monolayer; and C0 is the initial concentration in the donor chamber (μM).
The efflux ratio was calculated using the equation: […]

[2] = biological target: T2, α2AAR (α2A-adrenergic receptor) (Homo sapiens, UniProt P08913); assay: α2AAR FLIPR assay (agonist activity); type: cell-based; settings: FLIPR, α2AAR cell line hosted in HEK293 cells; read-out: α2A agonist activity (EC50)
T2 construct: expressed in transfected cells; host or cells: HEK293
T2 sequence (P08913 1-465): T1 sequence (P08913 1-465)
Procedure, shortened: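 HEK293 cells expressing α2AAR loaded with Fluo-4 Direct plus probenecid for 50 min at 37° C and 10 min at room temperature, then treated with serially diluted compounds.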

Row | Ki (α2AAR) [nM] | efflux ratio at 2.5 h, 2 μM [1] | EC50 [2] [nM] | SMILES
1 | 10 to 50 | 25.3 | 10 to 50 | Cc1c(CF)cccc1C(c1cccc(NS(C)(=O)=O)c1)c1c[nH]cn1 (racemic) [compound 118]
2 | 50 to 250 | 51 | 10 to 50 | CONC(=O)c1cccc(C(c2c[nH]cn2)c2cccc(C)c2C)c1 (single isomer, unassigned) [1-B]
3 | 10 to 50 | 33.2 | 10 to 50 | Cc1cccc(C(c2cccc(C(N)=O)c2)c2c[nH]cn2)c1C (single isomer, unassigned) [5-B]
4 | < 10 | 14 | 10 to 50 | Cc1cccc(C(c2c[nH]cn2)c2cccc(C(N)=O)c2F)c1C (single isomer, unassigned) [45-B]
5 | < 10 | 30.9 | < 10 | Cc1cccc(C(c2cccc(C(=O)NC3CCOCC3)c2)c2c[nH]cn2)c1C (single isomer, unassigned) [121-B]
6 | < 10 | 10.3 | 10 to 50 | Cc1cccc(C(c2c[nH]cn2)c2cccc(C(=O)NCC3CCOCC3)c2F)c1C (single isomer, unassigned) [124-B]
7 | < 10 | 2.86 | < 10 | Cc1cccc(C(Cc2ccc(C(N)=O)c(F)c2)c2c[nH]cn2)c1C (single isomer, unassigned) [156-B]
8 | – | 0.83 | – | Brc1c(NC2=NCCN2)ccc2nccnc12 [Brimonidine, brimonidine, reference compound]
9 | – | 13.7 | – | C[C@H]1O[C@@H](O[C@H]2[C@@H](O)C[C@H](O[C@H]3[C@@H](O)C[C@H](O[C@H]4CC[C@@]5(C)[C@H](CC[C@@H]6[C@@H]5C[C@@H](O)[C@]5(C)[C@@H](C7=CC(=O)OC7)CC[C@]65O)C4)O[C@@H]3C)O[C@@H]2C)C[C@H](O)[C@@H]1O [Digoxin, reference compound]
10 | 10 to 50 | 26.4 | 10 to 50 | Cc1cccc(C(c2c[nH]cn2)c2cccc(OCCNS(C)(=O)=O)c2F)c1C (stereo not drawn) [compound 55]
11 | 10 to 50 | 11.5 | 10 to 50 | Cc1cccc(C(c2c[nH]cn2)c2cccc(C(N)=O)n2)c1C (stereo not drawn) [compound 56]
12 | 10 to 50 | 24.3 | 10 to 50 | Cc1cccc(C(c2cccc(NC(=O)OC3CCOC3)c2)c2c[nH]cn2)c1C (stereo not drawn) [compound 64]
13 | 10 to 50 | 29 | 10 to 50 | CCS(=O)(=O)Nc1cccc(C(c2c[nH]cn2)c2cccc(C)c2C)c1 (stereo not drawn) [compound 67]
14 | 10 to 50 | 32.9 | 10 to 50 | CONC(=O)Nc1cccc(C(c2c[nH]cn2)c2cccc(C)c2C)c1 (stereo not drawn) [compound 72]
15 | 10 to 50 | 96.1 | 10 to 50 | Cc1cccc(C(c2cccc(NC(=O)CC3CCOC3)c2)c2c[nH]cn2)c1C (stereo not drawn) [compound 73]
16 | 10 to 50 | 93.5 | 50 to 250 | Cc1cccc(C(c2cccc(NS(=O)(=O)CCC#N)c2)c2c[nH]cn2)c1C (stereo not drawn) [compound 74]
17 | < 10 | 112 | 10 to 50 | Cc1cccc(C(c2cccc(NC(=O)CC3CCOCC3)c2)c2c[nH]cn2)c1C (stereo not drawn) [compound 80]
18 | < 10 | 62.5 | 10 to 50 | Cc1cccc(C(c2cccc(NC(=O)CN3CCOCC3)c2)c2c[nH]cn2)c1C (stereo not drawn) [compound 81]
19 | < 10 | 102 | 10 to 50 | Cc1cccc(C(c2cccc(C(=O)NOCC3CCOC3)c2)c2c[nH]cn2)c1C (stereo not drawn) [compound 95]
20 | – | 82.6 | – | Cc1cccc(C(c2cccc(C(=O)NCC3CCOCC3)c2)c2c[nH]cn2)c1C (stereo not drawn) [compound 98]

Row | Ki (α2AAR) [nM] | efflux ratio at 2.5 h, 2 μM [1] | EC50 [2] [nM] | SMILES
21 | 10 to 50 | 141 | 10 to 50 | Cc1cccc(C(c2cccc(C(=O)NCC3CCC(O)CC3)c2)c2c[nH]cn2)c1C (stereo not drawn) [compound 99]
22 | 10 to 50 | 104 | 10 to 50 | Cc1cccc(C(c2cccc(NC(=O)CCC3CCOCC3)c2)c2c[nH]cn2)c1C (stereo not drawn) [compound 101]
23 | 10 to 50 | 149 | 10 to 50 | Cc1cccc(C(c2cccc(NC(=O)Cc3ccncc3)c2)c2c[nH]cn2)c1C (stereo not drawn) [compound 103]
24 | < 10 | 65.8 | 10 to 50 | Cc1cccc(C(c2cccc(S(=O)(=O)NCC3CCOCC3)c2)c2c[nH]cn2)c1C (stereo not drawn) [compound 105]
25 | < 10 | 72.2 | 10 to 50 | Cc1cccc(C(Cc2cccc(NC(=O)CC3CCOCC3)c2)c2c[nH]cn2)c1C (stereo not drawn) [compound 108]
26 | 10 to 50 | 94.8 | 10 to 50 | Cc1cccc(C(c2cccc(NC(=O)NC3CC3)c2)c2c[nH]cn2)c1C (stereo not drawn) [compound 109]
27 | 10 to 50 | 173 | 10 to 50 | Cc1cccc(C(c2cccc(NC(=O)NC3CCOCC3)c2)c2c[nH]cn2)c1C (stereo not drawn) [compound 111]
28 | < 10 | 58.4 | 10 to 50 | Cc1cccc(C(Cc2cccc(NS(=O)(=O)CC3CCOCC3)c2)c2c[nH]cn2)c1C (stereo not drawn) [compound 112]
29 | < 10 | 7.85 | 10 to 50 | Cc1cccc(C(c2c[nH]cn2)c2cccc(C(=O)NCC3CCOCC3)c2O)c1C (stereo not drawn) [compound 138]
30 | 10 to 50 | 2.61 | 50 to 250 | Cc1cccc(C(c2cccc(NC(=O)CC[N+](C)(C)C)c2)c2c[nH]cn2)c1C (stereo not drawn) [compound 141]
31 | < 10 | 23.7 | 10 to 50 | Cc1cccc(C(Cc2ccc(NS(=O)(=O)C3CCOCC3)cc2)c2c[nH]cn2)c1C (stereo not drawn) [compound 158]
32 | < 10 | 9.08 | 10 to 50 | Cc1cccc(C(Cc2ccc(C(N)=O)cc2)c2c[nH]cn2)c1C (stereo not drawn) [compound 163]
33 | < 10 | 14.8 | < 10 | Cc1cccc(C(Cc2ccc(NC(=O)CC3CCOCC3)cc2)c2c[nH]cn2)c1C (stereo not drawn) [compound 165]
34 | 10 to 50 | 3.38 | 10 to 50 | Cc1cccc(C(Cc2ccc(C(=O)NC3CCOCC3)nc2)c2c[nH]cn2)c1C (stereo not drawn) [compound 186]
35 | < 10 | 2.6 | 10 to 50 | Cc1cccc(C(Cc2ccc(C(=O)NC3CCOCC3)c(F)c2)c2c[nH]cn2)c1C (stereo not drawn) [compound 187]
36 | < 10 | 4.91 | 10 to 50 | CC(=O)Nc1ccc(CC(c2c[nH]cn2)c2cccc(C)c2C)cc1 (stereo not drawn) [compound 190]
37 | < 10 | 27.7 | 10 to 50 | Cc1cccc(C(Cc2ccc(NC(=O)C3COC3)cc2)c2c[nH]cn2)c1C (stereo not drawn) [compound 200]
38 | < 10 | 61.8 | 10 to 50 | Cc1cccc(C(Cc2ccc(NC(=O)NC3CCOCC3)cc2)c2c[nH]cn2)c1C (stereo not drawn) [compound 205]
39 | < 10 | 8.88 | < 10 | Cc1cccc(C(Cc2ccc(S(N)(=O)=O)c(F)c2)c2c[nH]cn2)c1C (stereo not drawn) [compound 208]
40 | < 10 | 4.92 | < 10 | COc1cc(CC(c2c[nH]cn2)c2cccc(C)c2C)ccc1C(=O)NC1CCOCC1 (stereo not drawn) [compound 213]
